Assay results taken from US11852970B2, “Material for lithography, production method therefor, composition for lithography, pattern formation method, compound, resin, and method for purifying the compound or the resin” (Mitsubishi Gas Chemical Company, Inc., priority 2015, dated 2023).

Test: Safe solvent solubility test of compound
Format: physicochemical
Settings: amount of dissolution in propylene glycol monomethyl ether acetate at 23° C., ultrasonic 30 minutes, visual
Description: The solubility of the compound in propylene glycol monomethyl ether acetate was measured as the solubility of the compound in a safe solvent. The solubility was evaluated according to the following criteria utilizing the amount of dissolution in propylene glycol monomethyl ether acetate. The amount of dissolution was measured at 23° C. by precisely weighing the compound into a test tube, adding propylene glycol monomethyl ether acetate so as to attain a predetermined concentration, applying ultrasonic waves for 30 minutes in an ultrasonic cleaner, then visually observing the subsequent state of the fluid, and conducting evaluation on the basis of the concentration of the amount of complete dissolution. • A: 5.0% by mass≤Amount of dissolution • B: 3.0% by mass≤Amount of dissolution<5.0% by mass • C: Amount of dissolution<3.0% by mass (2) Storage Stability and Thin Film Formability of Resist Composition

Row | SMILES | Safe solvent solubility test
1 | CC1(OC(=O)COc2ccc([Te]c3ccc(OCC(=O)OC4(C)C5CC6CC(C5)CC4C6)cc3)cc2)C2CC3CC(C2)CC1C3 (stereo not drawn) [TDP-ADBAC] | A (5.0% by mass≤Amount of dissolution)
2 | CCOC(C)Oc1ccc([Te](Cl)(Cl)c2ccc(OC(C)OCC)cc2)cc1 (stereo not drawn) [BHPT-EE, bis(ethoxyethylphenyl)tellurium dichloride] | A (5.0% by mass≤Amount of dissolution)
3 | CC(C)(C)OC(=O)Oc1ccc([Te](Cl)(Cl)c2ccc(OC(=O)OC(C)(C)C)cc2)cc1 [BHPT-BOC, bis(tert-butoxycarboxyphenyl)tellurium dichloride] | A (5.0% by mass≤Amount of dissolution)
4 | CC1(OC(=O)COc2ccc([Te](Cl)(Cl)c3ccc(OCC(=O)OC4(C)C5CC6CC(C5)CC4C6)c(-c4ccccc4)c3)cc2-c2ccccc2)C2CC3CC(C2)CC1C3 (stereo not drawn) [Ph-BHPT-ADBAC] | A (5.0% by mass≤Amount of dissolution)
5 | Oc1ccc([Te](Cl)(Cl)c2ccc(O)cc2)cc1 [BHPT, bis(4-hydroxyphenyl)tellurium dichloride] | A (5.0% by mass≤Amount of dissolution)
6 | CC1(OC(=O)COc2ccc([Te](Cl)(Cl)c3ccc(OCC(=O)OC4(C)C5CC6CC(C5)CC4C6)cc3)cc2)C2CC3CC(C2)CC1C3 (stereo not drawn) [BHPT-ADBAC, bis(4-(2-methyl-2-adamantyloxycarbonylmethoxy)phenyl)tellurium dichloride] | A (5.0% by mass≤Amount of dissolution)
7 | CCOC(C)Oc1ccc([Te](Cl)(Cl)c2ccc(OC(C)OCC)c(-c3ccccc3)c2)cc1-c1ccccc1 (stereo not drawn) [Ph-TDP-EE] | A (5.0% by mass≤Amount of dissolution)
8 | CC1(OC(=O)COc2ccc([Te]c3ccc(OCC(=O)OC4(C)C5CC6CC(C5)CC4C6)c(-c4ccccc4)c3)cc2-c2ccccc2)C2CC3CC(C2)CC1C3 (stereo not drawn) [Ph-TDP-ADBAC] | A (5.0% by mass≤Amount of dissolution)
9 | Oc1ccc([Te](Cl)(Cl)c2ccc(O)c(-c3ccccc3)c2)cc1-c1ccccc1 [Ph-BHPT, bis(3-phenyl-4-hydroxyphenyl)tellurium dichloride] | A (5.0% by mass≤Amount of dissolution)
10 | CC(C)(C)OC(=O)COc1ccc([Te]c2ccc(OCC(=O)OC(C)(C)C)cc2)cc1 [Ph-TDP-BOC] | A (5.0% by mass≤Amount of dissolution)
11 | Oc1ccc([Te]c2ccc(O)cc2)cc1 [TDP, 4,4′-telluriumdiphenol] | A (5.0% by mass≤Amount of dissolution)
12 | Oc1ccc([Te]c2ccc(O)c(-c3ccccc3)c2)cc1-c1ccccc1 [Ph-TDP, bis(3-phenyl-4-hydroxyphenyl)tellurium] | A (5.0% by mass≤Amount of dissolution)
